US7517874B2 (priority 2007, dated 2009)
pEC50: −log10 of the molar value.

How the values were obtained:
[1] = biological target: T1, rat CB2 receptor (rCB2) (Rattus norvegicus, UniProt Q9QZN9); test: cell-based; assay type: cell-based; settings: for +/− RCB2: agonist or inverse agonist at rCB2
T1 sequence (Q9QZN9 1-360): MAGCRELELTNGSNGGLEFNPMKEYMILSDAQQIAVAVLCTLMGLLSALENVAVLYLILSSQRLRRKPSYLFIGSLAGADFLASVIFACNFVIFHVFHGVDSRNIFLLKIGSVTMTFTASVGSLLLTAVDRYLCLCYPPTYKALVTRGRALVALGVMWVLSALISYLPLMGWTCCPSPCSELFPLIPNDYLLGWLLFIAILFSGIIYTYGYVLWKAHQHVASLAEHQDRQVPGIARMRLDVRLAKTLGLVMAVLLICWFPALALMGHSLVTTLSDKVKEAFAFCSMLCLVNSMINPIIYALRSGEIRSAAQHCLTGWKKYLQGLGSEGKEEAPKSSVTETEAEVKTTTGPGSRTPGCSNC
Summary of the method: (§1)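 First, cells in IBMX-containing HEPES-buffered HBSS are raised to elevated cAMP with 2-8 μM NKH-477 for 30 min. Data are normalised to the forskolin and forskolin + 1 μM CP55,940 controls.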

[2] = biological target: human CB1 receptor (hCB1) (Homo sapiens, UniProt P21554); test: cell-based; assay type: cell-based; settings: for +/− HCB1: agonist or inverse agonist at hCB1
human CB1 receptor (hCB1), sequence (P21554 whole entry): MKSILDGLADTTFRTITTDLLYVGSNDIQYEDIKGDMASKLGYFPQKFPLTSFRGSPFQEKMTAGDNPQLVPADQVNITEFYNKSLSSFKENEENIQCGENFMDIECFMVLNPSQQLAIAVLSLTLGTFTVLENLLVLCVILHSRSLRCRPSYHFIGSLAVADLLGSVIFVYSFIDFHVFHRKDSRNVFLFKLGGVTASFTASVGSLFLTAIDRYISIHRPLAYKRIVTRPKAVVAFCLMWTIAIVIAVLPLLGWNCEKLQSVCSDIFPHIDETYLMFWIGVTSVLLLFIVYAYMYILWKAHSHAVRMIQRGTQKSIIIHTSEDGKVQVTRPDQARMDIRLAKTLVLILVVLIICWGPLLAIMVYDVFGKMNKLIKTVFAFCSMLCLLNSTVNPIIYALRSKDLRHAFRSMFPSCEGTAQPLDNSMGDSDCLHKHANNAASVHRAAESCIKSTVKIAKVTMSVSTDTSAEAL
Summary of the method: as §1

| Structure (SMILES) | +/− RCB2 [1] | pEC50 [2] | +/− HCB1 [2] | pEC50 [1] |
| --- | --- | --- | --- | --- |
| CNC(=O)[C@@H](NC(=O)c1nc(C(O)C2CC2)n2c1CN(C)CC2)C(C)(C)C (stereo partly drawn) [Compound 296, 3-(cyclopropyl(hydroxy)methyl)-N-((S)-3,3-dimethyl-1-(methylamino)-1-oxobutan-2-yl)-7-methyl-5,6,7,8-tetrahydroimidazo[1,5-a]pyrazine-1-carboxamide] | + | < 5.00 |  |  |
| CNC(=O)[C@@H](NC(=O)c1nc(-c2nccs2)n2c1CN(C)CC2)C(C)(C)C [Compound 297, (S)-N-(3,3-dimethyl-1-(methylamino)-1-oxobutan-2-yl)-7-methyl-3-(thiazol-2-yl)-5,6,7,8-tetrahydroimidazo[1,5-a]pyrazine-1-carboxamide] | + | < 5.00 |  |  |
| CNC(=O)[C@@H](NC(=O)c1nc(-c2ccccc2)n2c1CN(c1ncccn1)CC2)C(C)(C)C [Compound 298, N-(3,3-dimethyl-1-(methylamino)-1-oxobutan-2-yl)-3-phenyl-7-(pyrimidin-2-yl)-5,6,7,8-tetrahydroimidazo[1,5-a]pyrazine-1-carboxamide] | + |  | + |  |
| CNC(=O)[C@@H](NC(=O)c1nc(-c2ccccc2)n2c1CN(c1cccc(Cl)n1)CC2)C(C)(C)C [Compound 299, (S)-7-(6-chloropyridin-2-yl)-N-(3,3-dimethyl-1-(methylamino)-1-oxobutan-2-yl)-3-phenyl-5,6,7,8-tetrahydroimidazo[1,5-a]pyrazine-1-carboxamide] | − |  | + |  |
| CNC(=O)[C@@H](NC(=O)c1nc(-c2ccccc2)n2c1CN(c1cncc(Cl)n1)CC2)C(C)(C)C [Compound 300, (S)-7-(6-chloropyrazin-2-yl)-N-(3,3-dimethyl-1-(methylamino)-1-oxobutan-2-yl)-3-phenyl-5,6,7,8-tetrahydroimidazo[1,5-a]pyrazine-1-carboxamide] | − |  | + |  |
| CNC(=O)[C@@H](NC(=O)c1nc(-c2ccccc2)n2c1CN(c1cnccn1)CC2)C(C)(C)C [Compound 301, (S)-N-(3,3-dimethyl-1-(methylamino)-1-oxobutan-2-yl)-3-phenyl-7-(pyrazin-2-yl)-5,6,7,8-tetrahydroimidazo[1,5-a]pyrazine-1-carboxamide] |  | < 5.00 |  | < 5.00 |
| CNC(=O)[C@H](NC(=O)c1nc(-c2ccccc2)n2c1CN(C)CC2)C(C)(C)C [Compound 302, (R)-N-(3,3-dimethyl-1-(methylamino)-1-oxobutan-2-yl)-7-methyl-3-phenyl-5,6,7,8-tetrahydroimidazo[1,5-a]pyrazine-1-carboxamide] |  | < 5.00 |  | < 5.00 |
| CNC(=O)[C@@H](NC(=O)c1nc(C2CCCC2)n2c1CN(C)CC2)C(C)(C)C [Compound 303, (S)-3-cyclopentyl-N-(3,3-dimethyl-1-(methylamino)-1-oxobutan-2-yl)-7-methyl-5,6,7,8-tetrahydroimidazo [1,5-a]pyrazine-1-carboxamide] | + | < 5.00 |  |  |
| CCCc1nc(C(=O)N[C@H](C(=O)NC)C(C)(C)C)c2n1CCN(C)C2 [Compound 304, (S)-N-(3,3-dimethyl-1-(methylamino)-1-oxobutan-2-yl)-7-methyl-3-propyl-5,6,7,8-tetrahydroimidazo[1,5-a]pyrazine-1-carboxamide] | + | < 5.00 |  |  |
| CNC(=O)[C@@H](NC(=O)c1nc(C2CCCCC2)n2c1CN(C)CC2)C(C)(C)C [Compound 305, (S)-3-cyclohexyl-N-(3,3-dimethyl-1-(methylamino)-1-oxobutan-2-yl)-7-methyl-5,6,7,8-tetrahydroimidazo[1,5-a]pyrazine-1-carboxamide] | + | < 5.00 |  |  |
| CNC(=O)[C@@H](NC(=O)c1nc(CC(C)C)n2c1CN(C)CC2)C(C)(C)C [Compound 306, (S)-N-(3,3-dimethyl-1-(methylamino)-1-oxobutan-2-yl)-3-isobutyl-7-methyl-5,6,7,8-tetrahydroimidazo[1,5-a]pyrazine-1-carboxamide] | + | < 5.00 |  |  |
| CNC(=O)[C@@H](NC(=O)c1nc(CCCN2CCCCC2)n2c1CN(C)CC2)C(C)(C)C [Compound 307, (S)-N-(3,3-dimethyl-1-(methylamino)-1-oxobutan-2-yl)-7-methyl-3-(3-(piperidin-1-yl)propyl)-5,6,7,8-tetrahydroimidazo[1,5-a]pyrazine-1-carboxamide] | + | < 5.00 |  |  |
| CNC(=O)[C@@H](NC(=O)c1nc(CCCN2CCCC2)n2c1CN(C)CC2)C(C)(C)C [Compound 308, (S)-N-(3,3-dimethyl-1-(methylamino)-1-oxobutan-2-yl)-7-methyl-3-(3-(pyrrolidin-1-yl)propyl)-5,6,7,8-tetrahydroimidazo[1,5-a]pyrazine-1-carboxamide] | − | < 5.00 |  |  |
| CNC(=O)[C@@H](NC(=O)c1nc(CCCN2CCOCC2)n2c1CN(C)CC2)C(C)(C)C [Compound 309, (S)-N-(3,3-dimethyl-1-(methylamino)-1-oxobutan-2-yl)-7-methyl-3-(3-morpholinopropyl)-5,6,7,8-tetrahydroimidazo[1,5-a]pyrazine-1-carboxamide] |  | < 5.00 |  | < 5.00 |
| CCc1nc(C(=O)N[C@H](C(=O)NC)C(C)(C)C)c2n1CCN(C)C2 [Compound 310, (S)-N-(3,3-dimethyl-1-(methylamino)-1-oxobutan-2-yl)-3-ethyl-7-methyl-5,6,7,8-tetrahydroimidazo[1,5-a]pyrazine-1-carboxamide] | − | < 5.00 |  |  |
| CNC(=O)[C@@H](NC(=O)c1nc(-c2ccccc2)n2c1CN(C(=O)OC(C)(C)C)CCC2)C(C)(C)C [Compound 312, (S)-tert-butyl 1-(3,3-dimethyl-1-(methylamino)-1-oxobutan-2-ylcarbamoyl)-3-phenyl-6,7-dihydro-5H-imidazo[1,5-a][1,4]diazepine-8(9H)-carboxylate] | − | < 5.00 |  |  |
| CNC(=O)[C@@H](NC(=O)c1nc(-c2ccc(Cl)cc2F)n2c1CN(C(=O)OC(C)(C)C)CCC2)C(C)(C)C [Compound 313] | − | < 5.00 |  |  |
| CNC(=O)[C@@H](NC(=O)c1nc(-c2ccccc2)n2c1CNCCC2)C(C)(C)C [Compound 314, (S)-N-(3,3-dimethyl-1-(methylamino)-1-oxobutan-2-yl)-3-phenyl-6,7,8,9-tetrahydro-5H-imidazo[1,5-a][1,4]diazepine-1-carboxamide] | − | < 5.00 |  |  |
| CNC(=O)[C@@H](NC(=O)c1nc(-c2ccc(Cl)cc2F)n2c1CNCCC2)C(C)(C)C [Compound 315, (S)-3-(4-chloro-2-fluorophenyl)-N-(3,3-dimethyl-1-(methylamino)-1-oxobutan-2-yl)-6,7,8,9-tetrahydro-5H-imidazo[1,5-a][1,4]diazepine-1-carboxamide] |  | < 5.00 |  | < 5.00 |
| CNC(=O)[C@@H](NC(=O)c1nc(-c2ccc(C)cc2F)n2c1CNCCC2)C(C)(C)C [Compound 316, (S)-N-(3,3-dimethyl-1-(methylamino)-1-oxobutan-2-yl)-3-(2-fluoro-4-methylphenyl)-6,7,8,9-tetrahydro-5H-imidazo[1,5-a][1,4]diazepine-1-carboxamide] | − | < 5.00 |  |  |
| CCN1CCCn2c(-c3ccccc3)nc(C(=O)N[C@H](C(=O)NC)C(C)(C)C)c2C1 [Compound 318, (S)-N-(3,3-dimethyl-1-(methylamino)-1-oxobutan-2-yl)-8-ethyl-3-phenyl-6,7,8,9-tetrahydro-5H-imidazo[1,5-a][1,4]diazepine-1-carboxamide] | + | < 5.00 |  |  |
| CNC(=O)[C@@H](NC(=O)c1nc(-c2ccccc2)n2c1CN(C(C)C)CCC2)C(C)(C)C [Compound 319, (S)-N-(3,3-dimethyl-1-(methylamino)-1-oxobutan-2-yl)-8-isopropyl-3-phenyl-6,7,8,9-tetrahydro-5H-imidazo[1,5-a][1,4]diazepine-1-carboxamide] |  | < 5.00 |  | < 5.00 |
| CNC(=O)[C@@H](NC(=O)c1nc(-c2ccccc2)n2c1CN(CC(C)C)CCC2)C(C)(C)C [Compound 320, (S)-N-(3,3-dimethyl-1-(methylamino)-1-oxobutan-2-yl)-8-isobutyl-3-phenyl-6,7,8,9-tetrahydro-5H-imidazo[1,5-a][1,4]diazepine-1-carboxamide] | − | < 5.00 |  |  |
| CNC(=O)[C@@H](NC(=O)c1nc(-c2ccccc2)n2c1CN(CC1CC1)CCC2)C(C)(C)C [Compound 321, (S)-8-(cyclopropylmethyl)-N-(3,3-dimethyl-1-(methylamino)-1-oxobutan-2-yl)-3-phenyl-6,7,8,9-tetrahydro-5H-imidazo[1,5-a][1,4]diazepine-1-carboxamide] | − | < 5.00 |  |  |
| CNC(=O)[C@@H](NC(=O)c1nc(-c2ccc(Cl)cc2F)n2c1CN(CC(C)C)CCC2)C(C)(C)C [Compound 322, (S)-3-(4-chloro-2-fluorophenyl)-N-(3,3-dimethyl-1-(methylamino)-1-oxobutan-2-yl)-8-isobutyl-6,7,8,9-tetrahydro-5H-imidazo[1,5-a][1,4]diazepine-1-carboxamide] | − | < 5.00 |  |  |
